Tests used:
cortical neurons [1] = assay: Membrane hyperpolarization associated with neuroprotection; type: cell-based, mouse
cortical neurons [2] = assay: Oxygen glucose deprivation (OGD) model, neuronal death assessed by Hoechst staining; type: cell-based, mouse; conditions: glibenclamide 10 μM applied 30 min before MLC901 1 μg/mL
Protocol: Time-pregnant (E14) C57B16/J mice were anesthetized with isopentane followed by cervical dislocation as previously described (Heurteaux et al., 2010). Fetuses were removed and placed in cold HBSS^+ solution. Cerebral cortices were dissected in cold HBSS^+ solution and the meninges were removed. Cortical samples were cut in small pieces and were gently triturated with a fire-polished glass Pasteur pipette in 8 ml HBSS^+ solution. The mix was filtered (40 μm filter) and centrifuged at 800 rpm for 8 min. The supernatant was removed and the pellet was dissolved in 2 ml culture medium. Cells were plated on poly-D-lysine (Sigma-Aldrich Chimie, St Quentin Fallavier, France)-coated 12 well (24 mm diameter) plates with glass coverslips (12 mm diameter) (CML, Nemours, France) at a density of 1×10^6 cells/well. Cultures were maintained at 37° C. in a humidified 95% air/5% CO2 atmosphere incubator in Neurobasal supplemented with B27, Glutamax, 100 units/ml penicillin, and 100 µg/ml streptomycin and used for experiments up to 12 days. Glial growth was suppressed by addition of 5-Fluoro-2-deoxyuridine (2 μM) and Uridine (2 μM) during the second day of culture.
OGD experiments were performed on primary mouse cortical neurons seeded at a density of 1,000,000 cells/35-mm dish after 4 days of culture (Goldberg and Choi, 1993). […]

[3] = biological target: KATP channel (Kir 6.2 and SUR 1) (Homo sapiens, UniProt Q09428+Q14654); assay: Two-electrode voltage clamp of KATP channels expressed in Xenopus oocytes, preactivated by sodium azide; type: cell-based; conditions: sodium azide 3 mM; test substance 10 μM
Protocol: Defolliculated Xenopus oocytes were injected with 100 mL of cRNA at 0.02-0.4 μg/μL for Kir 6.2 and SUR 1 expression, and recorded 2-4 days later.
For electrophysiology, single oocytes were placed in a 0.3-mL perfusion chamber and impaled with two standard microelectrodes (1-2.5 M.Q. resistance) filled with 3 M KCl and voltage clamped with a Dagan CA-1 amplifier, in symmetrical potassium solution containing (in mM) (90 KCl, 1.8 CaCl2, 1 mM MgCl2, 5 Hepes, pH 7.4 with KOH). Stimulation of the preparation, data acquisition, and analysis were performed using pClamp software (Axon Instruments). Currents were recorded in this potassium symmetrical control condition. KATP channel activity was evaluated by intracellular ATP depletion by 3 mM of sodium azide.
For Kir 6.2 and SUR 1 expression defolliculated Xenopus oocytes were injected with 100 mL of cRNA at 0.02-0.4 μg/μL, and currents were recorded after 2-4 days. […] Currents were recorded in the potassium symmetrical control condition. KATP channel activity was evaluated by intracellular ATP depletion by 3 mM of sodium azide.
current was first recorded in control condition (symmetrical potassium solution). […]

[4] = biological target: T1, KATP channels in INS-R9 insulinoma cells (Rattus norvegicus, UniProt P70673+Q09429); assay: Whole cell patch clamp recording of endogenous KATP currents in INS-R9 cells; type: cell-based; conditions: 10 μM pinacidil applied with MLC901 1 μg/mL
T1 construct: Insulinoma cells naturally have KATP channels; endogenous in cells; host or cells: rat INS-R9 insulinoma cells
T1 sequence (P70673 whole entry): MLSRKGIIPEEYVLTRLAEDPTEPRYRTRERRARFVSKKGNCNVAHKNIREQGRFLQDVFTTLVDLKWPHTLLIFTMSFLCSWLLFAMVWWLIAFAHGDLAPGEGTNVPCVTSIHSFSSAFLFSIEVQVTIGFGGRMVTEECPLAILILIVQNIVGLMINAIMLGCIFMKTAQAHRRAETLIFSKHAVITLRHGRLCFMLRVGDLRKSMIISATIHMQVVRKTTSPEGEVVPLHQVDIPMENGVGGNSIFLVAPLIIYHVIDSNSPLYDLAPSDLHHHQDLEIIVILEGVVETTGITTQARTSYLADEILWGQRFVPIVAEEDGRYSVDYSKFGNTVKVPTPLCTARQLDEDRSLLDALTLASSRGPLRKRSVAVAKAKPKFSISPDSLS
T1 sequence (Q09429 whole entry): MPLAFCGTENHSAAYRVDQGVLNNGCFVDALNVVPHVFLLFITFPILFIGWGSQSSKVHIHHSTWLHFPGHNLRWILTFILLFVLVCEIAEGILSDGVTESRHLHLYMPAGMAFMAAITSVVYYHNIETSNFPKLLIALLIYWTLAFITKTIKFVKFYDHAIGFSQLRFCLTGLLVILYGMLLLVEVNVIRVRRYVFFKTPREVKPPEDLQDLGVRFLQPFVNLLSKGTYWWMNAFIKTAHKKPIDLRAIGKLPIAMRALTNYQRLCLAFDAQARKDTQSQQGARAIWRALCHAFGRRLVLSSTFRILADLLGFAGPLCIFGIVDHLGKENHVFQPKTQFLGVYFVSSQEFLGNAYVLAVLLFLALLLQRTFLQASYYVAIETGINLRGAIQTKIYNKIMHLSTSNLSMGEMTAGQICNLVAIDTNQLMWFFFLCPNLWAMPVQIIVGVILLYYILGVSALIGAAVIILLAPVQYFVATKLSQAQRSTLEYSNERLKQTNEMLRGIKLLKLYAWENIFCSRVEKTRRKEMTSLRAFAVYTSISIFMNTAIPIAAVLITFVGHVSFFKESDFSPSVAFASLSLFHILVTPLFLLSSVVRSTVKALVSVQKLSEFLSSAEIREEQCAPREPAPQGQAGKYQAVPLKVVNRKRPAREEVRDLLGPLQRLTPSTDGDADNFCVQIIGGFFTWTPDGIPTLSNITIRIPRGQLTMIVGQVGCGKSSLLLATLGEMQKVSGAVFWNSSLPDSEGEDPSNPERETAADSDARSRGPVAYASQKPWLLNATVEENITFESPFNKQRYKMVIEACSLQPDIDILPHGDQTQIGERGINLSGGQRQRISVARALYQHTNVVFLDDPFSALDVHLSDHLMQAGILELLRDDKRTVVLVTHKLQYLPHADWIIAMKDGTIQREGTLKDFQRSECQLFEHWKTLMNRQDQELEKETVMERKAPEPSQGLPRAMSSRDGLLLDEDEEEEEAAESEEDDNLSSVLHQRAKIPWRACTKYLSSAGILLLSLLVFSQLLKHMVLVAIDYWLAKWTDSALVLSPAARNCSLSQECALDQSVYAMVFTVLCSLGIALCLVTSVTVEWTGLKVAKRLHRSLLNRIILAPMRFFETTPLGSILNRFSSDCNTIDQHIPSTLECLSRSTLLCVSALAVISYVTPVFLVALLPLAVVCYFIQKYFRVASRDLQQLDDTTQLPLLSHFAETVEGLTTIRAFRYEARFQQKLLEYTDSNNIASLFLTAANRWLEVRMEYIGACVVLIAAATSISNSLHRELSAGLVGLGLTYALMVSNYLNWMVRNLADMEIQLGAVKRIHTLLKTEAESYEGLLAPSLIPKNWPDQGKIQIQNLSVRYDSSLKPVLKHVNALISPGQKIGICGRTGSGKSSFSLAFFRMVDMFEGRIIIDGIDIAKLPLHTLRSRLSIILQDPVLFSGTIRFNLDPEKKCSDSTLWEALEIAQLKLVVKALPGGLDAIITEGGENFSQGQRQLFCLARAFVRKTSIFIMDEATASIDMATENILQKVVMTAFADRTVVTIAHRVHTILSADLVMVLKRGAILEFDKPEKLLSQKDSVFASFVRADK
Protocol: All electrophysiological experiments were done on INS-R9 transfected cells seeded at a density of 20,000 cells/35-mm dish. Transfected cells were used 48-72 h after transfection. […] All current amplitudes are expressed in current densities. Results are expressed as mean and standard error of the mean (SEM). […] For le currents the bath solution contained (in mM) 150 NaCl, 5 KCl, 3 MgCl2, 1 CaCl2 and 10 HEPES adjusted to pH 7.4 with NaOH. […] For Na^+ currents, the bath solution contained (in mM) 150 NaCl, 2 KCl, 1 MgCl2, 1.5 CaCl2, 10 glucose and 10 HEPES adjusted to pH 7.4 with NaOH. […] All experiments were performed at room temperature (21-22° c.). Stimulation protocols and data acquisition were carried out using a microcomputer (Dell Pentium) witch used a commercial software and hardware (pClamp 8.2). K^+ Currents were recorded by voltage clamp steps to membrane potentials of −140 to +80 mV for neurons or −100 to +60 mV for transfected cell lines in 20 mV steps applied from a holding potential of −80 mV. […] Current amplitudes were evaluated at the end of the stimulation pulses. Na^+ currents were recorded by voltage clamp steps to membrane potentials of −80 to +50 mV in 5 mV steps applied from a holding potential of −100 mV. The duration of a depolarization pulse was 100 ms, and the pulse cycling rate was 2 s. Current amplitudes were evaluated at the peak of the stimulation pulses. […]

Sequence of KATP channel (Kir 6.2 and SUR 1) (Q14654 whole entry): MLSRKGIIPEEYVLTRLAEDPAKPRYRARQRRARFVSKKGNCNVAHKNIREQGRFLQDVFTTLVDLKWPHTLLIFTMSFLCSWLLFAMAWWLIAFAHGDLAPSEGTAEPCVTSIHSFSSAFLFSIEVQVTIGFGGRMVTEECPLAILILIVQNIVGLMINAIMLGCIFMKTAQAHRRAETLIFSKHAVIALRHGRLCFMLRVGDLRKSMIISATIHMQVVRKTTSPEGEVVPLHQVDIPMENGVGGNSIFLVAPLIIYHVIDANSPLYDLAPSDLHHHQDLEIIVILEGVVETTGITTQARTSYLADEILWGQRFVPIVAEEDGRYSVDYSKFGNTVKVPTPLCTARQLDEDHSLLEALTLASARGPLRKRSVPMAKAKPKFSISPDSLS
Sequence of KATP channel (Kir 6.2 and SUR 1) (Q09428 whole entry): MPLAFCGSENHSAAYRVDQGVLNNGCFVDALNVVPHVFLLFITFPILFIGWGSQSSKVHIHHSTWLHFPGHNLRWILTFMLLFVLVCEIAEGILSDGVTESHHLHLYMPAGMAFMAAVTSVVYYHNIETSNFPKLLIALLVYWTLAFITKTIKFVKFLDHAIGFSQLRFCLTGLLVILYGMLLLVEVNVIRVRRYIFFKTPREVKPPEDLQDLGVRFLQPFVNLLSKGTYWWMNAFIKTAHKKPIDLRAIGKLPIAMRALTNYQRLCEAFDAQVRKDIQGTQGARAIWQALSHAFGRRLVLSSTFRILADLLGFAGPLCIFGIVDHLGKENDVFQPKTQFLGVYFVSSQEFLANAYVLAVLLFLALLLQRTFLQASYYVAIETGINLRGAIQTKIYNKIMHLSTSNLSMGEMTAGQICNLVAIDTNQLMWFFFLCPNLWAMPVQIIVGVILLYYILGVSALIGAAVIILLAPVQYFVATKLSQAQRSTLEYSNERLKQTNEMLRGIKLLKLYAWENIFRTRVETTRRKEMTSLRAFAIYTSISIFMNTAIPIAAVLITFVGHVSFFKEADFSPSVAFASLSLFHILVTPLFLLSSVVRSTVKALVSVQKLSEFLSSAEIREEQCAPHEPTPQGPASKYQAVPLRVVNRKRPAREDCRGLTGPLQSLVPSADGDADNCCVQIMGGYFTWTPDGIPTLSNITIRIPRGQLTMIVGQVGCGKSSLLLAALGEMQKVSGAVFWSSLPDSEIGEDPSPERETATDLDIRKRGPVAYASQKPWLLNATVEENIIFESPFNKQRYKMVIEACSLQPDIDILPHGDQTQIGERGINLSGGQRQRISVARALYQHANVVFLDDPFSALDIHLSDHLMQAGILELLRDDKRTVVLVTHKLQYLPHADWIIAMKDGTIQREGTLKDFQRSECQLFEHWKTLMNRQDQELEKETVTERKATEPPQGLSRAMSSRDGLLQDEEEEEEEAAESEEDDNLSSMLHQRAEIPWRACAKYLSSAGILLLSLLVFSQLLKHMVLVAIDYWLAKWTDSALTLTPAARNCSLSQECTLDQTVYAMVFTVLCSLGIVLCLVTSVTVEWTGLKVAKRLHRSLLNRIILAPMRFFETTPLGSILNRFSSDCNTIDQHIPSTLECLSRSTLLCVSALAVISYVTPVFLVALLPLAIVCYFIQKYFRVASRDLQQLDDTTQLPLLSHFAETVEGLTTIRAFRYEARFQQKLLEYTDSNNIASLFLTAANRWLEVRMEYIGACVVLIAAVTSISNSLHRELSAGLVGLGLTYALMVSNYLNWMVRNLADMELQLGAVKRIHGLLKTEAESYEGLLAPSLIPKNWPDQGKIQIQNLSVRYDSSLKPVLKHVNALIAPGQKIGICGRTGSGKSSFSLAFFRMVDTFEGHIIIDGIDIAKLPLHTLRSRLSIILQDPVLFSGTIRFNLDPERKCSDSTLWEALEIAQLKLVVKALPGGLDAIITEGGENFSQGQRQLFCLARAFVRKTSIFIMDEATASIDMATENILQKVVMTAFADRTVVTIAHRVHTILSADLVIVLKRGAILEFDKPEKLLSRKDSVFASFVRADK

Compound | effect on MLC901-induced hyperpolarization (cortical neurons [1]) | effect on the protection induced by MLC901 against OGD damage (cortical neurons [2]) | amplitude of the azide-induced KATP channel current [3] | KATP current in INS-R9 cells, combination with MLC901 [4]
COc1ccc(Cl)cc1C(=O)NCCc1ccc(S(=O)(=O)NC(=O)NC2CCCCC2)cc1 [glibenclamide] | antagonized | inhibited the protection induced by MLC901 |  | 
CC(N=C(NC#N)Nc1ccncc1)C(C)(C)C (stereo not shown) [pinacidil, N-cyano-N′-pyridin-4-yl-N″-(1,2,2-trimethylpropyl)guanidine] |  |  | amplified | additive effect
